Assay results taken from ChEMBL document CHEMBL1201862, “PubChem BioAssay data set” (2004).
Active and inactive are the calls of the source.

How the values were obtained:
[1] = microbe, parasite or virus in culture; assay type: functional; settings: Mycobacterium tuberculosis
[2] = Luminescence Cell-Based Dose Retest to Confirm Inhibitors of Cancer Stem Cells. [Related pubchem assays (depositor defined):AID2717, AID2721]; assay type: functional; settings: Homo sapiens
[3] = HepG2 cell cytotoxicity, dose response, cytotoxicity control for Shn3 inhibitor project, CellTiter-Glo, cherry-picked (AID 624134); assay type: functional, cell-based
[4] = control 3'UTR Renilla luciferase suppression, dose response, counter-screen for Shn3 inhibitor project, cell-based, Clone20-Shn3RL, cherry-picked (AID 624133); assay type: functional
[5] = Shn3 3'UTR reporter inhibitors, dose response, cell-based, Clone20 osteoblasts, firefly luciferase, cherry-picked (AID 624132); assay type: functional;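 further: firefly luciferase luminescence from reporter carrying the Shn3 3'UTR in osteoblasts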
[6] = biological target: T1, Cytochrome P450 1A2 (Homo sapiens, UniProt P05177);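 further: PubChem cytochrome P450 panel assay, CYP1A2 panel member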
T1 sequence (P05177 whole entry): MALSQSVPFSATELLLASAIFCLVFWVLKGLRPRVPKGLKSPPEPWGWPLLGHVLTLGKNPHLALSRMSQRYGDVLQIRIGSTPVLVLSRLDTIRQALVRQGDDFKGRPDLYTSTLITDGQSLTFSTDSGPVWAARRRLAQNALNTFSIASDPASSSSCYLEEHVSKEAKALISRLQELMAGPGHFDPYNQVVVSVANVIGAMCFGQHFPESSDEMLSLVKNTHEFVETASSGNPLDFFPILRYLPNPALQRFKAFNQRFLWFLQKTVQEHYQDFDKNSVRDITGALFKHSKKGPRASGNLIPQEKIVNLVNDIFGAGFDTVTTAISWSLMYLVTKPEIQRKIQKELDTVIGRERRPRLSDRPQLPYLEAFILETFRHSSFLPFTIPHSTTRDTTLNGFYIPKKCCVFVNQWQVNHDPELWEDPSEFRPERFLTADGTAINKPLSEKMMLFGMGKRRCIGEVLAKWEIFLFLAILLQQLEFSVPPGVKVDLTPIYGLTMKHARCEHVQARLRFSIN

[7] = biological target: Cytochrome P450 2C9 (Homo sapiens, UniProt P11712)
[8] = biological target: Cytochrome P450 3A4 (Homo sapiens, UniProt P08684);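 further: CYP3A4 tested as one member of a cytochrome P450 panel screen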
[9] = biological target: Genome polyprotein (dengue virus type 2, UniProt P29990); test: Dengue-2 NS5 methyltransferase inhibitors, primary screen, biochemical, confirmation dose response (AID 588689); assay type: functional
[10] = biological target: T2, High affinity choline transporter 1 (Homo sapiens, UniProt Q9GZV3); test: CHT inhibitors, dose response, cell-based, 5-point CRC, membrane potential dye (AID 504840); assay type: functional
T2 sequence (Q9GZV3 whole entry): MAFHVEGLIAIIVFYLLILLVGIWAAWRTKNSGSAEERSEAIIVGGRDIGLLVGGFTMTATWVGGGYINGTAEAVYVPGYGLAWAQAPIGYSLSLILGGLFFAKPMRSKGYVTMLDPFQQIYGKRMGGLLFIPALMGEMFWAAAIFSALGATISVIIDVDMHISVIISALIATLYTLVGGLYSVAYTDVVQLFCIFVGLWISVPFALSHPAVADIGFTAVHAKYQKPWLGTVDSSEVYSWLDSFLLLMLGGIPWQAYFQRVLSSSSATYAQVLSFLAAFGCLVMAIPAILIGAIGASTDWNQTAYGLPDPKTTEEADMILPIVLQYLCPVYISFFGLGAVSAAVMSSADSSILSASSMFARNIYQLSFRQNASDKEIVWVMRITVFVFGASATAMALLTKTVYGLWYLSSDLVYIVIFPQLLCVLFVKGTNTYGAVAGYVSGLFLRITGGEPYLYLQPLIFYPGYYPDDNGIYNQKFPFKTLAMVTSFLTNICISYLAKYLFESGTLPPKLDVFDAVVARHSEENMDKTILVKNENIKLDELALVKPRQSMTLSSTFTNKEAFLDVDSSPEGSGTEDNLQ

[11] = biological target: Heat shock protein HSP 90-alpha (Homo sapiens, UniProt P07900); assay type: functional, organism-based
[12] = biological target: T3, Carboxy-terminal domain RNA polymerase II polypeptide A small phosphatase 1 (Homo sapiens, UniProt Q9GZU7); test: inhibitors of CTDSP1, concentration-response testing, biochemical assay, absorbance-based, actives from ultra-high-throughput screening (AID 540297); assay type: functional
T3 sequence (Q9GZU7 whole entry): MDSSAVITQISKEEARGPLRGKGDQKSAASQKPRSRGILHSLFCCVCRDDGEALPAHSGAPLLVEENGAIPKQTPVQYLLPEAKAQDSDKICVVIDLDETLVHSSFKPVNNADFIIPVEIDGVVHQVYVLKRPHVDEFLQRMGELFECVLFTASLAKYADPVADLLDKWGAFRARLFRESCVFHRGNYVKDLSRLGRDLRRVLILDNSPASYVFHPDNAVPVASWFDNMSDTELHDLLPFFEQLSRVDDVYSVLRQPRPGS

[13] = system: H9c2; test: cells; assay type: functional, cell-based; settings: Rattus norvegicus, H9c2, Myocardium;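 further: confirmatory concentration-response retest of ultra-high-throughput screening hits for modulation of myocardial damage; cell death induced by hydrogen peroxide oxidative stress; compound pretreatment for 60 min then peroxide exposure for 2 h; potency is for protecting the cells against peroxide damage rather than for killing them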
[14] = biological target: Glucose-6-phosphate 1-dehydrogenase (Homo sapiens, UniProt P11413); test: human G6PD enzyme inhibitors, dose response, selectivity assay for P. falciparum G6PD inhibitor project, biochemical, fluorescence (AID 504792); assay type: functional
[15] = P. falciparum Dd2 growth inhibitors, dose response, SYBR Green, cherry-picked samples (AID 1159567); assay type: functional, cell-based
[16] = system: HEK293; test: inhibitors of LMP1-driven NF-kB reporter, dose response, cell-based, HEK293, luciferase, cherry-pick (AID 588343); assay type: functional; settings: Homo sapiens
[17] = growth suppression of beta-catenin-knockout colon cells, dose response, cell-based, HCT116, human colon tumor (AID 1045); assay type: functional;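 further: HCT116 colon tumor cells with beta catenin knocked out; cells exposed to compound for 60 hours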
[18] = growth suppression of PTEN-null colon cells, dose response, cell-based, HCT116 PTEN knockout (AID 1047); assay type: functional;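 further: HCT116 colon tumor cells with PTEN knocked out; cells exposed to compound for 60 hours before readout; potency for loss of cell viability measured by luminescence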

Chain of Cytochrome P450 2C9 (P11712 whole entry): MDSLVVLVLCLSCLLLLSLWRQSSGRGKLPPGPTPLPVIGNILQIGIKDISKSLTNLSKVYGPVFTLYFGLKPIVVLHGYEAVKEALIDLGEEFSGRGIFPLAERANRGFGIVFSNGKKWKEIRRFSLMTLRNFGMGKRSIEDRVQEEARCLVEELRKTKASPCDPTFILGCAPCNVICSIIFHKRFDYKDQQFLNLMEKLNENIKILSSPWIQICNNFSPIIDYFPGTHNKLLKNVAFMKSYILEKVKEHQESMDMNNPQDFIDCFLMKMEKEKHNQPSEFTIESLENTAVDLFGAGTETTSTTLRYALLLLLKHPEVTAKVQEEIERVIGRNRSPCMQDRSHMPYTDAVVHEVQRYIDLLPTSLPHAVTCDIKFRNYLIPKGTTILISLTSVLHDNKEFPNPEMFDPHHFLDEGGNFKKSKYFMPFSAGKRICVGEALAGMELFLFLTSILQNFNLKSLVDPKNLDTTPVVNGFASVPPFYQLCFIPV
Chain of Glucose-6-phosphate 1-dehydrogenase (P11413 whole entry): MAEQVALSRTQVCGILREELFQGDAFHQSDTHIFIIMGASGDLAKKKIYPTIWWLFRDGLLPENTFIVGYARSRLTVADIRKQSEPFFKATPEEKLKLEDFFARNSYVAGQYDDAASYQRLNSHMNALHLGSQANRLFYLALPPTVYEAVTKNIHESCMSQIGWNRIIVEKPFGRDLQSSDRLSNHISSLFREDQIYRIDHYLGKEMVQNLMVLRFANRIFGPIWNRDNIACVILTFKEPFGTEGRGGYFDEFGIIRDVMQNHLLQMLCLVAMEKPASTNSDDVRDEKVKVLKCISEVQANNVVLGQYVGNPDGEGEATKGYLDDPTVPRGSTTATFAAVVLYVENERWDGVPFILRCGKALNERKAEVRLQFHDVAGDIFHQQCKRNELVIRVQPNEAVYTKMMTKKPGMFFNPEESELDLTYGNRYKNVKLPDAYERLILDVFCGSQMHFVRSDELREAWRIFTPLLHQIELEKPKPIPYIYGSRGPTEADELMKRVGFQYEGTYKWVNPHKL
Chain of Genome polyprotein (P29990 2492-3391 limits assumed): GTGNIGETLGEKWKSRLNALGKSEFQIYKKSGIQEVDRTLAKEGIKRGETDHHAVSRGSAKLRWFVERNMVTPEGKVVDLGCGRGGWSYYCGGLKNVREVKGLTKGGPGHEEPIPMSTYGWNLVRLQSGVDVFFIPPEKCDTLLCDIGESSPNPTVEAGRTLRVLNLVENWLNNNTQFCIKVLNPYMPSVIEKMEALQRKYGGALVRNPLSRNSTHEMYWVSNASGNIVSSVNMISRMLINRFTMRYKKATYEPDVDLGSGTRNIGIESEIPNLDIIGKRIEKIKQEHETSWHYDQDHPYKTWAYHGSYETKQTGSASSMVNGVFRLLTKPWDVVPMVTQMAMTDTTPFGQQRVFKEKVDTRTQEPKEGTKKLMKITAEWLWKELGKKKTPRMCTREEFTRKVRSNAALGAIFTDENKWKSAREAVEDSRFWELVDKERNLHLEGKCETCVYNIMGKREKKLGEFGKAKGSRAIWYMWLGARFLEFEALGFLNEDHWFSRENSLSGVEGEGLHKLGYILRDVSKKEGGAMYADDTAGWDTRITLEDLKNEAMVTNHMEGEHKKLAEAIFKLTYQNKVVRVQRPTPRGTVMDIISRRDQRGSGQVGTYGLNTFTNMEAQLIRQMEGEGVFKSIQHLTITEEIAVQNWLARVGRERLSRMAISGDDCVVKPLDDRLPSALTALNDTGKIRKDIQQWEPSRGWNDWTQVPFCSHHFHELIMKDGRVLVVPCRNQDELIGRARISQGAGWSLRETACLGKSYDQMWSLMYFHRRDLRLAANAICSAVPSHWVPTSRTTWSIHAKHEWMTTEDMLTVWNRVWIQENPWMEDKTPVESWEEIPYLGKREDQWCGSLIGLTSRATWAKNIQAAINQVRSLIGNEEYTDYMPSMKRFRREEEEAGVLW
Chain of Cytochrome P450 3A4 (P08684 whole entry): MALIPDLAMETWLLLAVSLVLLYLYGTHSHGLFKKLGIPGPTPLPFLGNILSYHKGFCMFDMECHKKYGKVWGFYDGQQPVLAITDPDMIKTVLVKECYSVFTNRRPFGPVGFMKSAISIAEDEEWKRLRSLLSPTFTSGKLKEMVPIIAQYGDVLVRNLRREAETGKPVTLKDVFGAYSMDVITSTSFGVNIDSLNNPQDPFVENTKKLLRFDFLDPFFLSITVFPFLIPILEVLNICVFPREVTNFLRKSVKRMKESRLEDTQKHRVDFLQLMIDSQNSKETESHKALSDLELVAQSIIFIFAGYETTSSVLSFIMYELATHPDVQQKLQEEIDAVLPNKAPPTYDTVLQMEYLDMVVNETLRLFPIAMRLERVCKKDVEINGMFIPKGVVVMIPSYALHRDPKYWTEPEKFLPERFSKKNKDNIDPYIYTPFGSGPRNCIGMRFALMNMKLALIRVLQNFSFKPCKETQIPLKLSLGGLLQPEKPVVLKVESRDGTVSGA

## Cc1ccc(OC/C(O)=C(\C#N)c2nc3ccccc3s2)cc1
[1]
  CC50: > 40 µM (active)
[2]
  AC50: 6.14 µM (active)

## O=C(c1ccoc1)N1CCN(c2cc(-c3cccc(F)c3)nc3cc(-c4cccc(Cl)c4)nn23)CC1
[3]
  AC50: > 70 µM (inactive)
[4]
  AC50: 12.9 µM (active)
[5]
  AC50: 9.78 µM (active)

## CCNc1ncc2nc(-c3ccccc3)c(=O)n(Cc3ccc(F)cc3)c2n1
[6]
  AC50: 3.16 µM (inconclusive)
[7]
  AC50: inconclusive
[8]
  AC50: 20 µM (inconclusive)

## O=C(O)/C=C/C(=O)c1ccc(O)cc1
[9]
  IC50: > 100 µM (active)

## Cc1onc(-c2ccccc2Cl)c1C(=O)Nc1nnc(-c2cccc([N+](=O)[O-])c2)s1
[10]
  IC50: 19.1 µM (active)

## Cc1ccc(Nc2nc(N)c([N+](=O)[O-])c(N3CCCC(C)C3)n2)cc1C (centres undefined)
[1]
  CC50: 40 µM (active)
[11]
  AC50: 8.91 µM (active)

## NCCSC[C@H](N)C(=O)O
[7]
  AC50: inconclusive

## CC(=O)NC1=NC(=O)CS1
[6]
  AC50: 0.2 µM (inconclusive)
[7]
  AC50: inconclusive

## O=C(O)c1cccc2c1/C(=N/Nc1ccc([N+](=O)[O-])cc1[N+](=O)[O-])c1ccccc1-2
[10]
  IC50: 15.2 µM (active)
[12]
  IC50: 30.7 µM (active)

## c1ccc(-c2cn3c(n2)CCc2ccc4cccnc4c2-3)cc1
[1]
  CC50: 22.1 µM (active)
[13]
  IC50: > 79 µM (inactive)
[14]
  IC50: > 80 µM (inactive)

## CN1C(=O)c2cc(NC(=O)c3cnccn3)ccc2OC[C@H]2O[C@@H](CC(=O)N[C@H]3CCN(Cc4ccccc4)C3)CC[C@H]21
[15]
  AC50: 6.41 µM (active)

## COc1ccc(-n2c(C)c(C(C)=O)c3cc(OC(C)=O)ccc32)cc1
[16]
  AC50: 4.43 µM (active)
[13]
  IC50: > 79 µM (inactive)

## COc1ccc(Cl)cc1Nc1nc(-c2sc(NC(=O)c3ccccc3)nc2C)cs1
[17]
  EC50: 10.3 µM (active)
[18]
  EC50: 7.12 µM (active)

## Cn1c(N=C(S)Nc2ccccc2)nc2ccccc21
[1]
  CC50: > 40 µM (active)

## COc1ccc(C2(C(=O)Nc3ccc(S(=O)(=O)Nc4nc(C)cc(C)n4)cc3)CCCC2)cc1OC
[10]
  IC50: 12.3 µM (active)

## C[C@@H]1O[C@H]1P(=O)([O-])[O-].[Na+].[Na+]
[7]
  AC50: inconclusive

## c1ccc(CN2CCN(c3nc4ccccc4n4cnnc34)CC2)cc1
[10]
  IC50: 1.82 µM (active)
